From PMC5471267, “Novel regulatory mechanism of serine biosynthesis associated with 3-phosphoglycerate dehydrogenase in Arabidopsis thaliana” (Scientific Reports, 2017)
Several values for one entry are separate records, joined by “and”; a condition that tells them apart may be missing. Identical values can stand only once. Values belong to the molecule of their own block, whether it stands above or below them.

Experiments:
AtPGDH1 = biological target: T1, AtPGDH1 (Arabidopsis thaliana, UniProt O49485); test: 3-PGA oxidation, NADH absorbance at […] nm; Hill fit; type: biochemical
T1 construct: gene PGDH1; mature enzyme, predicted chloroplast transit peptide removed; eXact tag cleaved (tag-free); E. coli BL21 CodonPlus(DE3)-RIL; homotetramer
T1 sequence (O49485 59-603 limits assumed): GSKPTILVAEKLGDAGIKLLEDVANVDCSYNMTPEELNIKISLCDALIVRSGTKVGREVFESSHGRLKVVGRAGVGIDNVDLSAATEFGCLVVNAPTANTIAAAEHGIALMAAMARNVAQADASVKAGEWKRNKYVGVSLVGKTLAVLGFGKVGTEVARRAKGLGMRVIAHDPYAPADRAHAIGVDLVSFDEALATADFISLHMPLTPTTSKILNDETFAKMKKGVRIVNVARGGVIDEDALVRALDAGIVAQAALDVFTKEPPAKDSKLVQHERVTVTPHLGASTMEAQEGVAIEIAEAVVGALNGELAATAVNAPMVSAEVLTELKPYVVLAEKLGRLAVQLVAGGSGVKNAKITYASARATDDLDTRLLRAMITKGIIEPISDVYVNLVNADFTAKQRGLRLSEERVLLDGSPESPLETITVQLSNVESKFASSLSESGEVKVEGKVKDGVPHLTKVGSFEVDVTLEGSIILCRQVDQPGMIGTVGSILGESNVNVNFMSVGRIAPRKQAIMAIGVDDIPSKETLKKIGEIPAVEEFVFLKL

AtPGDH3 = biological target: T2, AtPGDH3 (Arabidopsis thaliana, UniProt Q9LT69); test: 3-PGA oxidation, NADH absorbance at […] nm; Hill fit; type: biochemical
T2 construct: gene PGDH3; mature enzyme, predicted chloroplast transit peptide removed; eXact tag cleaved (tag-free); E. coli BL21 CodonPlus(DE3)-RIL; homotetramer
T2 sequence (Q9LT69 44-588 limits assumed): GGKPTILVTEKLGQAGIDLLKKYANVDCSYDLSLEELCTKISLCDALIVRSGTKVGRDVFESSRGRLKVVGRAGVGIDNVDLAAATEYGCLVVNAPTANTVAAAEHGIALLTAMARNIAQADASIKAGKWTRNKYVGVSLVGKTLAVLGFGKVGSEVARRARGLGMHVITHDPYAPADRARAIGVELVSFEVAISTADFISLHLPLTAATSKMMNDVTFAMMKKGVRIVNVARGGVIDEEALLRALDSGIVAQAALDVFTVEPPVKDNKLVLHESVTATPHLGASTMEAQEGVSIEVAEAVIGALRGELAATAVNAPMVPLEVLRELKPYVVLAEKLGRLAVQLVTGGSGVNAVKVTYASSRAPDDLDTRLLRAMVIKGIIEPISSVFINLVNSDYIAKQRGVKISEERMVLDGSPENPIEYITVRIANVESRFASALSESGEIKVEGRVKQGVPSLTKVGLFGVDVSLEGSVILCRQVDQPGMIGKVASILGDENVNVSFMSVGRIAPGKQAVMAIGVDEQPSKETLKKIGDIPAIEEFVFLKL

AtPGDH-N2/C1 = tested on: T3, AtPGDH-N2/C1; test: 3-PGA oxidation, NADH absorbance at […] nm; Hill fit; type: biochemical, Arabidopsis thaliana; details: cooperative, 10 mM 3-PGA, 1 mM NAD+, 0.1 M NaCl, pH 9.0, 25 °C
T3 construct: gene PGDH2; one fused polypeptide: N-terminal half (catalytic domain) of AtPGDH2 + C-terminal half (ASB and ACT domains) of AtPGDH1; tag-free, E. coli; homotetramer

AtPGDH-N1/C2 = tested on: T4, AtPGDH-N1/C2; test: 3-PGA oxidation, NADH absorbance at […] nm; Hill fit; type: biochemical, Arabidopsis thaliana; details: activator, cooperative; 10 mM 3-PGA, 1 mM NAD+, 0.1 M NaCl, pH 9.0, 25 °C
T4 construct: gene PGDH1; one fused polypeptide: N-terminal half (catalytic domain) of AtPGDH1 + C-terminal half (ASB and ACT domains) of AtPGDH2; tag-free, E. coli; mainly homotetramer, also multimers up to 20 subunits

[1] = biological target: AtPGDH-N2/C1: chimera of the N-terminal half of AtPGDH2 and the C-terminal half of AtPGDH1 (A. thaliana); test: SEC; HiLoad 26/600 Superdex 200 preparation grade column, flow rate 1 mL/min, 100 mM sodium phosphate buffer (pH 9.0); native molecular weight estimated from a standard curve of marker proteins; oligomer of the protein with itself
purified protein [2] = substrate: NC(=O)c1ccc[n+]([C@@H]2O[C@H](COP(=O)(O)OP(=O)(O)OC[C@H]3O[C@@H](n4cnc5c(N)ncnc54)[C@H](O)[C@@H]3O)[C@@H](O)[C@H]2O)c1; test: purified protein; type: biochemical, Arabidopsis thaliana; details: 10 mM 3-PGA, 0.1 M NaCl, pH 9.0, 25 °C, varied: cofactor
purified protein [3] = substrate: O=C(O)[C@H](O)COP(=O)(O)O; test: purified protein; type: biochemical, Arabidopsis thaliana; details: 1 mM NAD+, 0.1 M NaCl, pH 9.0, 25 °C
[4] = biological target: the molecule itself; test: SEC; HiLoad 26/600 Superdex 200 preparation grade column, flow rate 1 mL/min, 100 mM sodium phosphate buffer (pH 9.0); native molecular weight estimated from a standard curve of marker proteins; oligomer of the protein with itself

B1: AtPGDH2 (Arabidopsis thaliana) (protein)
chain: LPKPRILVTEKLGEAGVNLLREFGDVDCSYDLSPEDLKKKVAESDALIVRSGTKVTREVFEAAKGRLKVVGRAGVGIDNVDLQAATEHGCLVVNAPTANTVAAAEHGIALLASMARNVAQADASIKAGKWERSKYVGVSLVGKTLAVMGFGKVGTEVARRAKGLGMTVISHDPYAPADRARALGVDLVSFDQAISTADFVSLHMPLTPATKKVFNDETFSKMKKGVRLINVARGGVIDEDALVRALDAGIVAQAALDVFCEEPPSKDSRLIQHENVTVTPHLGASTKEAQEGVAIEIAEAVAGALKGELSATAVNAPMVAPEVLSELTPYIVLAEKLGRLAVQLASGGKGVQSIRVVYRSARDRDDLDTRLLRAMITKGIIEPISDSYVNLVNADFIAKQKGLRISEERMVVDSSPEYPVDSIQVQILNVESNFAGAVSDAGDISIEGKVKYGVPHLTCVGSFGVDVSLEGNLILCRQVDQPGMIGQVGNILGEQNVNVNFMSVGRTVLRKQAIMAIGVDEEPDNKTLERIGGVSAIEEFVFLKL
notes: mature enzyme, predicted chloroplast transit peptide removed; eXact tag cleaved (tag-free); E. coli BL21 CodonPlus(DE3)-RIL; equilibrium of homooctamers and homotetramers
Km (purified protein [2]): 123 ± 7 µM | kcat (purified protein [2]): 16 s⁻¹ | Km (purified protein [3]): 1030 ± 70 µM | kcat (purified protein [3]): 16 s⁻¹

B2: Arabidopsis thaliana 3-phosphoglycerate dehydrogenase 2 (AtPGDH2), recombinant, without the predicted transit peptide (enzyme, A. thaliana, UniProt O04130-1 50-624, looked up)
chain: AALKTVEQTTLTEDNRFSTVGSDSDEYNPTLPKPRILVTEKLGEAGVNLLREFGDVDCSYDLSPEDLKKKVAESDALIVRSGTKVTREVFEAAKGRLKVVGRAGVGIDNVDLQAATEHGCLVVNAPTANTVAAAEHGIALLASMARNVAQADASIKAGKWERSKYVGVSLVGKTLAVMGFGKVGTEVARRAKGLGMTVISHDPYAPADRARALGVDLVSFDQAISTADFVSLHMPLTPATKKVFNDETFSKMKKGVRLINVARGGVIDEDALVRALDAGIVAQAALDVFCEEPPSKDSRLIQHENVTVTPHLGASTKEAQEGVAIEIAEAVAGALKGELSATAVNAPMVAPEVLSELTPYIVLAEKLGRLAVQLASGGKGVQSIRVVYRSARDRDDLDTRLLRAMITKGIIEPISDSYVNLVNADFIAKQKGLRISEERMVVDSSPEYPVDSIQVQILNVESNFAGAVSDAGDISIEGKVKYGVPHLTCVGSFGVDVSLEGNLILCRQVDQPGMIGQVGNILGEQNVNVNFMSVGRTVLRKQAIMAIGVDEEPDNKTLERIGGVSAIEEFVFLKL
notes: AtPGDH2 (At1g17745), A. thaliana; region that corresponds with the mature enzyme, the chloroplast transit peptide having been predicted by comparison with MtPGDH; theoretical molecular weight 57.6 kDa; Found as an equilibrium of homooctamers and homotetramers; also called At1g17745
stoichiometry N [4]: 8 and 4

B3: Arabidopsis thaliana 3-phosphoglycerate dehydrogenase 1 (AtPGDH1), recombinant, without the predicted transit peptide (enzyme, A. thaliana, UniProt O49485 55-603, looked up)
chain: STGDGSKPTILVAEKLGDAGIKLLEDVANVDCSYNMTPEELNIKISLCDALIVRSGTKVGREVFESSHGRLKVVGRAGVGIDNVDLSAATEFGCLVVNAPTANTIAAAEHGIALMAAMARNVAQADASVKAGEWKRNKYVGVSLVGKTLAVLGFGKVGTEVARRAKGLGMRVIAHDPYAPADRAHAIGVDLVSFDEALATADFISLHMPLTPTTSKILNDETFAKMKKGVRIVNVARGGVIDEDALVRALDAGIVAQAALDVFTKEPPAKDSKLVQHERVTVTPHLGASTMEAQEGVAIEIAEAVVGALNGELAATAVNAPMVSAEVLTELKPYVVLAEKLGRLAVQLVAGGSGVKNAKITYASARATDDLDTRLLRAMITKGIIEPISDVYVNLVNADFTAKQRGLRLSEERVLLDGSPESPLETITVQLSNVESKFASSLSESGEVKVEGKVKDGVPHLTKVGSFEVDVTLEGSIILCRQVDQPGMIGTVGSILGESNVNVNFMSVGRIAPRKQAIMAIGVDDIPSKETLKKIGEIPAVEEFVFLKL
notes: AtPGDH1 (At4g34200), A. thaliana; region that corresponds with the mature enzyme, the chloroplast transit peptide having been predicted by comparison with MtPGDH; theoretical molecular weight 57.5 kDa; The start of the 'mature' region is a prediction of the authors from an alignment with MtPGDH; also called At4g34200
stoichiometry N [4]: 4

B4: AtPGDH1 (Arabidopsis thaliana) (protein)
chain: T1 sequence (O49485 59-603 limits assumed)
notes: mature enzyme, predicted chloroplast transit peptide removed; eXact tag cleaved (tag-free); E. coli BL21 CodonPlus(DE3)-RIL; homotetramer
Km (purified protein [2]): 50 ± 2 µM | kcat (purified protein [2]): 15 s⁻¹ | Km (purified protein [3]): 500 ± 50 µM | kcat (purified protein [3]): 15 s⁻¹

B5: AtPGDH3 (Arabidopsis thaliana) (protein)
chain: T2 sequence (Q9LT69 44-588 limits assumed)
notes: as for B4
Km (purified protein [3]): 770 ± 90 µM | kcat (purified protein [3]): 17 s⁻¹

B6: Arabidopsis thaliana 3-phosphoglycerate dehydrogenase 3 (AtPGDH3), recombinant, without the predicted transit peptide (enzyme, A. thaliana, UniProt Q9LT69 39-588, looked up)
chain: SSSGGGGKPTILVTEKLGQAGIDLLKKYANVDCSYDLSLEELCTKISLCDALIVRSGTKVGRDVFESSRGRLKVVGRAGVGIDNVDLAAATEYGCLVVNAPTANTVAAAEHGIALLTAMARNIAQADASIKAGKWTRNKYVGVSLVGKTLAVLGFGKVGSEVARRARGLGMHVITHDPYAPADRARAIGVELVSFEVAISTADFISLHLPLTAATSKMMNDVTFAMMKKGVRIVNVARGGVIDEEALLRALDSGIVAQAALDVFTVEPPVKDNKLVLHESVTATPHLGASTMEAQEGVSIEVAEAVIGALRGELAATAVNAPMVPLEVLRELKPYVVLAEKLGRLAVQLVTGGSGVNAVKVTYASSRAPDDLDTRLLRAMVIKGIIEPISSVFINLVNSDYIAKQRGVKISEERMVLDGSPENPIEYITVRIANVESRFASALSESGEIKVEGRVKQGVPSLTKVGLFGVDVSLEGSVILCRQVDQPGMIGKVASILGDENVNVSFMSVGRIAPGKQAVMAIGVDEQPSKETLKKIGDIPAIEEFVFLKL
notes: region that corresponds with the mature enzyme, the chloroplast transit peptide having been predicted by comparison with MtPGDH; theoretical molecular weight 57.9 kDa; also called At3g19480
stoichiometry N [4]: 4

Next, values leading:

EC50 (AtPGDH1): 0.023 mM | EC50 (AtPGDH3): 0.069 mM
Molecule: N[C@@H](CCS)C(=O)O [L-homocysteine]

EC50 (AtPGDH1): 3 ± 0.3 mM | EC50 (AtPGDH3): 9.2 ± 0.3 mM
Molecule: N[C@@H](CCO)C(=O)O [L-homoserine]

EC50 (AtPGDH1): 0.67 mM | EC50 (AtPGDH3): 2.5 ± 0.1 mM
Molecule: CSCC[C@H](N)C(=O)O [L-methionine]

EC50 (AtPGDH-N2/C1; activator): 2.6 ± 0.1 mM | EC50 (AtPGDH1): 5.3 ± 0.2 mM | EC50 (AtPGDH-N1/C2): 3.7 ± 0.1 mM | EC50 (AtPGDH3): 4.9 ± 0.2 mM
Molecule: C[C@H](N)C(=O)O [L-alanine]

stoichiometry N [1]: 4
Molecule: AtPGDH-N2/C1: chimera of the N-terminal half of AtPGDH2 and the C-terminal half of AtPGDH1 (enzyme)

EC50 (AtPGDH-N2/C1; inhibitor): 2.7 ± 0.1 mM | EC50 (AtPGDH1): 6.6 mM | EC50 (AtPGDH3): 1.3 mM
Molecule: N[C@@H](CO)C(=O)O [L-serine]

EC50 (AtPGDH1): 7.1 ± 0.2 mM | EC50 (AtPGDH3): 2.3 ± 0.2 mM
Molecule: CC(C)[C@H](N)C(=O)O [L-valine]
